# Measurements from patent US8946273B2, “S-Triazolyl alpha-mercapto acetanilides as inhibitors of HIV reverse transcriptase” (priority 2011, dated 2015).
# Experiments:
# [1] = biological target: mutant HIV reverse transcriptases (Human immunodeficiency virus type 1, UniProt P12497, Y768C, cells depend on it); assay type: cell-based
# [2] = biological target: mutant HIV reverse transcriptases (Human immunodeficiency virus type 1, UniProt P12497, Y775L, cells depend on it); assay type: cell-based
# [3] = system: wild type HIV-1; test: microbe, parasite or virus in culture; assay type: cell-based, human immunodeficiency virus type 1 (HIV-1); conditions: Human immunodeficiency virus 1, Hela-JC53, read-out: EC50 WT
# [4] = biological target: T1, wild-type HIV reverse transcriptase (Human immunodeficiency virus type 1 group M subtype B, UniProt P04585); test: Activity on wild type reverse transcriptase (Table 1 IC50 WT); assay type: biochemical
# T1 construct: wild-type and four mutant HIV reverse transcriptases
Structure (SMILES),EC50 [1] [nM],EC50 [2] [nM],EC50 [3] [nM],IC50 [4] [nM]
CCc1ccc(-n2c(Br)nnc2SCC(=O)Nc2ccc(C(=O)N[C@H](C(=O)OC)C(C)C)cc2Cl)c2ccccc12 [compound 102],< 50,< 50,< 50,50 to 100
COC(=O)[C@@H](NC(=O)c1ccc(NC(=O)CSc2nnc(Br)n2-c2ccc(C3CC3)c3ccccc23)c(Cl)c1)C(C)C [compound 103],< 50,50 to 100,< 50,< 50
CCOC(=O)CCNC(=O)c1ccc(NC(=O)CSc2nnc(Br)n2-c2ccc(C3CC3)c3ccccc23)c(Cl)c1 [compound 104],< 50,< 50,< 50,< 50
CCc1ccc(-n2c(Br)nnc2SCC(=O)Nc2ccc(C(=O)NCC(=O)O)cc2Cl)c2ccccc12 [compound 105],< 50,50 to 100,< 50,< 50
CC(C)[C@H](NC(=O)c1ccc(NC(=O)CSc2nnc(Br)n2-c2ccc(C3CC3)c3ccccc23)c(Cl)c1)C(=O)O [compound 106],> 100,50 to 100,< 50,50 to 100
CCOC(=O)CCNC(=O)c1ccc(NC(=O)CSc2nnc(Br)n2-c2ccc(CC)c3ccccc23)c(Cl)c1 [compound 107],< 50,> 100,< 50,< 50
CCOC(=O)CN(C)C(=O)c1ccc(NC(=O)CSc2nnc(Br)n2-c2ccc(CC)c3ccccc23)c(Cl)c1 [compound 108],< 50,< 50,< 50,< 50
CCOC(=O)CN(C)C(=O)c1ccc(NC(=O)CSc2nnc(Br)n2-c2ccc(C3CC3)c3ccccc23)c(Cl)c1 [compound 109],< 50,< 50,< 50,50 to 100
O=C(O)CNC(=O)c1ccc(NC(=O)CSc2nnc(Br)n2-c2ccc(C3CC3)c3ccccc23)c(Cl)c1 [compound 110],> 100,> 100,< 50,< 50
CN(CC(=O)O)C(=O)c1ccc(NC(=O)CSc2nnc(Br)n2-c2ccc(C3CC3)c3ccccc23)c(Cl)c1 [compound 111],> 100,> 100,50 to 100,< 50
O=C(O)CCNC(=O)c1ccc(NC(=O)CSc2nnc(Br)n2-c2ccc(C3CC3)c3ccccc23)c(Cl)c1 [compound 112],> 100,> 100,< 50,< 50
COc1ccc2c(C3CC3)ccc(-n3c(Br)nnc3SCC(=O)Nc3ccc(S(=O)(=O)O)cc3Cl)c2c1 [compound 113],50 to 100,> 100,50 to 100,< 50
CCOC(=O)[C@H](Cc1ccc(O)cc1)NC(=O)c1ccc(NC(=O)CSc2nnc(Br)n2-c2ccc(C3CC3)c3ccccc23)c(Cl)c1 [compound 114],< 50,> 100,< 50,50 to 100
COC(=O)[C@H](CC(C)C)NC(=O)c1ccc(NC(=O)CSc2nnc(Br)n2-c2ccc(C3CC3)c3ccccc23)c(Cl)c1 [compound 115],< 50,50 to 100,< 50,< 50
O=C(CSc1nnc(Br)n1-c1ccc(C2CC2)c2ccccc12)Nc1ccc(C(=O)N[C@@H](Cc2ccc(O)cc2)C(=O)O)cc1Cl [compound 116],> 100,> 100,50 to 100,< 50
CC(C)C[C@H](NC(=O)c1ccc(NC(=O)CSc2nnc(Br)n2-c2ccc(C3CC3)c3ccccc23)c(Cl)c1)C(=O)O [compound 117],50 to 100,> 100,< 50,< 50
CCc1ccc(-n2c(Br)nnc2SCC(=O)Nc2ccc(C(=O)NCC(OC)OC)cc2Cl)c2ccccc12 [compound 118],< 50,< 50,< 50,< 50
CCc1ccc(-n2c(Br)nnc2SCC(=O)Nc2ccc(C(=O)NCCN(C)C)cc2Cl)c2ccccc12 [compound 119],< 50,< 50,< 50,< 50
CCc1ccc(-n2c(Br)nnc2SCC(=O)Nc2ccc(C(=O)NCC(O)CO)cc2Cl)c2ccccc12 (stereo not shown) [compound 120],< 50,< 50,< 50,< 50
CCCCNC(=O)c1ccc(NC(=O)CSc2nnc(Br)n2-c2ccc(CC)c3ccccc23)c(Cl)c1 [compound 121],< 50,< 50,< 50,50 to 100

Structure (SMILES),EC50 [1] [nM],EC50 [2] [nM],EC50 [3] [nM],IC50 [4] [nM]
CCCCCCNC(=O)c1ccc(NC(=O)CSc2nnc(Br)n2-c2ccc(CC)c3ccccc23)c(Cl)c1 [compound 122],< 50,50 to 100,< 50,< 50
CCc1ccc(-n2c(Br)nnc2SCC(=O)Nc2ccc(C(=O)NCCN3CCCC3)cc2Cl)c2ccccc12 [compound 123],< 50,< 50,< 50,< 50
CCc1ccc(-n2c(Br)nnc2SCC(=O)Nc2ccc(C(=O)NCC3CCCCC3)cc2Cl)c2ccccc12 [compound 124],< 50,< 50,< 50,< 50
CCc1ccc(-n2c(Br)nnc2SCC(=O)Nc2ccc(C(=O)NCC3CCCO3)cc2Cl)c2ccccc12 (stereo not shown) [compound 125],< 50,< 50,< 50,< 50
CCOC(=O)N1CCC(NC(=O)c2ccc(NC(=O)CSc3nnc(Br)n3-c3ccc(CC)c4ccccc34)c(Cl)c2)CC1 [compound 126],< 50,< 50,< 50,< 50
CCc1ccc(-n2c(Br)nnc2SCC(=O)Nc2ccc(C(=O)NCCOC)cc2Cl)c2ccccc12 [compound 127],< 50,< 50,< 50,< 50
CCc1ccc(-n2c(Br)nnc2SCC(=O)Nc2ccc(C(=O)NCC(C)O)cc2Cl)c2ccccc12 (stereo not shown) [compound 128],< 50,< 50,< 50,< 50
CC(C)OC(=O)CNC(=O)c1ccc(NC(=O)CSc2nnc(Br)n2-c2ccc(C3CC3)c3ccccc23)c(Cl)c1 [compound 129],< 50,< 50,< 50,< 50
CCc1ccc(-n2c(Br)nnc2SCC(=O)Nc2ccc(C(=O)NCCC#N)cc2Cl)c2ccccc12 [compound 130],< 50,< 50,< 50,< 50
CCNC(=O)c1ccc(NC(=O)CSc2nnc(Br)n2-c2ccc(CC)c3ccccc23)c(Cl)c1 [compound 131],< 50,< 50,< 50,< 50
CCc1ccc(-n2c(Br)nnc2SCC(=O)Nc2ccc(C(=O)NCCO)cc2Cl)c2ccccc12 [compound 132],< 50,< 50,< 50,< 50
CCc1ccc(-n2c(Br)nnc2SCC(=O)Nc2ccc(C(=O)N3CCCCC3CO)cc2Cl)c2ccccc12 (stereo not shown) [compound 133],< 50,< 50,< 50,< 50
CCc1ccc(-n2c(Br)nnc2SCC(=O)Nc2ccc(C(=O)N3CCC(O)CC3)cc2Cl)c2ccccc12 [compound 134],< 50,< 50,< 50,< 50
CC[C@H](C)[C@H](NC(=O)c1ccc(NC(=O)CSc2nnc(Br)n2-c2ccc(C3CC3)c3ccccc23)c(Cl)c1)C(=O)O [compound 135],< 50,> 100,< 50,< 50
CCc1ccc(-n2c(Br)nnc2SCC(=O)Nc2ccc(C(=O)NCC(C)(C)N)cc2Cl)c2ccccc12 [compound 136],< 50,< 50,< 50,< 50
CCc1ccc(-n2c(Br)nnc2SCC(=O)Nc2ccc(C(=O)NCCCCO)cc2Cl)c2ccccc12 [compound 137],< 50,< 50,< 50,< 50
CCc1ccc(-n2c(Br)nnc2SCC(=O)Nc2ccc(C(=O)N3CCC(CN)CC3)cc2Cl)c2ccccc12 [compound 138],< 50,< 50,< 50,< 50
CCc1ccc(-n2c(Br)nnc2SCC(=O)Nc2ccc(C(=O)NCC3CCNCC3)cc2Cl)c2ccccc12 [compound 139],< 50,50 to 100,< 50,> 100
CCc1ccc(-n2c(Br)nnc2SCC(=O)Nc2ccc(C(=O)N[C@@H](CO)C(=O)OC)cc2Cl)c2ccccc12 [compound 140],< 50,< 50,< 50,< 50
Cc1cc(S(N)(=O)=O)ccc1NC(=O)C(C)Sc1nnc(Br)n1-c1c(C)ccc2ccccc12 (stereo not shown) [compound 142],< 50,> 100,< 50,< 50
